The values that follow come from ChEMBL document CHEMBL1201862, “PubChem BioAssay data set” (2004).

Molecules are shown by their SMILES.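 Each compound was tested at five concentrations against cells in 96-well plates for 48 hours. GI50 marks 50% less growth.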 The source made the active and inactive calls. Cut-off read from the data, not from the text of the source: active = GI50 up to about 1.1 µM and inactive = higher.

Among the test systems are OVCAR-4; OVCAR-3; MDA-MB-435; TK-10; NCI-H226; U-251; SN12C; SR; MCF7; MOLT-4; NCI-H522; ACHN; PC-3; SF-295; A549; EKVX; HCT-116; HOP-62; T47D; SK-MEL-5.
Holding throughout (assay): NCI tumour cell line growth inhibition, 48 h

As to `CCCNC(=O)c1cc(NC(=O)c2cc(NC(=O)/C=C/c3ccccc3)c(OC)c(OC)c2)c(OC)c(OC)c1`, the GI50 in the assay with OVCAR-4 is 2.54 µM (inactive); in the assay on OVCAR-3, 4.01 µM (inactive); in the assay with MDA-MB-435 it was 12 µM (inactive); in the assay with TK-10, 14.8 µM (inactive); in the assay with NCI-H226, 0.0216 µM (active); with U-251, 4.11 µM (inactive). Moreover, the GI50 in the assay with SN12C is 0.248 µM (active); with SR, 48.9 µM (inactive); in the assay on MCF7, 7.98 µM (inactive); in the assay on MOLT-4, > 100 µM (inactive); in the assay with NCI-H522, 4.72 µM (inactive); with ACHN, 7.94 µM (inactive). The GI50 was 6.87 µM (inactive) with PC-3; 3.16 µM (inactive) in the assay on SF-295; 5.64 µM (inactive) in the assay on A549; 15.8 µM (inactive) in the assay on EKVX; 5.7 µM (inactive) with HCT-116; 4.41 µM (inactive) in the assay with HOP-62.

As for `O=C1NC(=S)NC1C(Cc1ccccc1)c1ccco1` (centres undefined), the GI50 in the assay on OVCAR-4, in the assay on MDA-MB-435, with TK-10, with NCI-H226, in the assay on U-251 and with SN12C was > 100 µM (inactive) each time. Also, the GI50 in the assay with SR is 75.3 µM (inactive); in the assay with T47D, > 100 µM (inactive); in the assay on MCF7, 6.76 µM (inactive); in the assay on MOLT-4, 81.7 µM (inactive); in the assay with NCI-H522, > 100 µM (inactive); with SK-MEL-5, > 100 µM (inactive). Also, the GI50 in the assay on ACHN, with SF-295, in the assay on A549, with EKVX and with HCT-116 was > 100 µM (inactive) throughout.

Turning to `CSC1=N/C(=C\c2ccccc2)C(=O)N1CN1CCOCC1`, the GI50 is 28.2 µM (inactive) in the assay on OVCAR-4; > 100 µM (inactive) in the assay with OVCAR-3; 93.8 µM (inactive) in the assay on MDA-MB-435; > 100 µM (inactive) with TK-10; 41.6 µM (inactive) with NCI-H226; 64.4 µM (inactive) in the assay on U-251. The GI50 in the assay on SN12C is > 100 µM (inactive); in the assay on SR, 43.6 µM (inactive); in the assay on MCF7, 28.3 µM (inactive); with MOLT-4 it was 64.6 µM (inactive); in the assay with NCI-H522, 51.8 µM (inactive); with SK-MEL-5, 50.5 µM (inactive). The GI50 with ACHN was 38.9 µM (inactive); in the assay with PC-3 it was 68.9 µM (inactive); in the assay on SF-295, > 100 µM (inactive); in the assay on A549, > 100 µM (inactive); in the assay on EKVX, 50.6 µM (inactive); in the assay on HCT-116 it was 39.4 µM (inactive). Further, the GI50 in the assay on HOP-62 is > 100 µM (inactive).

For `O=C(CC1C(=O)Nc2ccccc2[S+]1[O-])Nc1cccc(Cl)c1` (centres undefined), the GI50 in the assay with OVCAR-4 is > 53.8 µM (inactive); in the assay on OVCAR-3, 32.7 µM (inactive); in the assay with MDA-MB-435, 27.9 µM (inactive); with TK-10, > 58.9 µM (inactive); with NCI-H226 it was 44.3 µM (inactive); with U-251, 33.7 µM (inactive). For the same molecule, the GI50 in the assay on SN12C is > 51.9 µM (inactive); in the assay with SR it was 4.93 µM (inactive); in the assay with T47D it was 11.2 µM (inactive); in the assay on MCF7, 13.8 µM (inactive); in the assay on MOLT-4 it was > 37.7 µM (inactive); in the assay on SK-MEL-5 it was > 30.9 µM (inactive). Also, the GI50 in the assay on ACHN is 33.7 µM (inactive); in the assay on SF-295, 41.9 µM (inactive); with A549, > 100 µM (inactive); with EKVX, > 47.4 µM (inactive); with HCT-116 it was 31.6 µM (inactive); with HOP-62 it was 25.5 µM (inactive).

Take `[O-][S+](c1ccccc1)c1ccc(/N=N/O)nc1` (centres undefined): the GI50 is > 100 µM (inactive) in the assay on OVCAR-4; > 100 µM (inactive) in the assay on OVCAR-3; > 100 µM (inactive) in the assay with TK-10; 69.8 µM (inactive) with NCI-H226; > 100 µM (inactive) with U-251; > 100 µM (inactive) in the assay with SN12C. Also, the GI50 was > 100 µM (inactive) in the assay with SR; 82.6 µM (inactive) in the assay with T47D; > 100 µM (inactive) in the assay with MCF7; > 100 µM (inactive) in the assay on MOLT-4; > 100 µM (inactive) with NCI-H522; > 100 µM (inactive) in the assay with SK-MEL-5. Besides, the GI50 in the assay on ACHN is > 100 µM (inactive); with PC-3, 78.5 µM (inactive); in the assay on SF-295, > 100 µM (inactive); with A549 it was > 100 µM (inactive); in the assay with EKVX it was > 100 µM (inactive); with HCT-116, > 100 µM (inactive). Also, in the assay with HOP-62, the GI50 is > 100 µM (inactive).

In the case of `CC1=NNC(=O)C1C1CC(c2c[nH]c3ccccc23)=NN=C1Cl` (centres undefined), the GI50 in the assay on OVCAR-3 was 62.1 µM (inactive); in the assay on MDA-MB-435, 48.9 µM (inactive); in the assay on TK-10, > 100 µM (inactive); in the assay on NCI-H226 it was 74.1 µM (inactive); in the assay on U-251 it was 43.6 µM (inactive); in the assay on SN12C, 82 µM (inactive). The GI50 was 36.2 µM (inactive) in the assay on T47D; 24.2 µM (inactive) in the assay on MOLT-4; 45.8 µM (inactive) in the assay on NCI-H522; 42.8 µM (inactive) with SK-MEL-5; 86.1 µM (inactive) in the assay on ACHN; 56.5 µM (inactive) with PC-3. Besides, the GI50 in the assay on SF-295 is 53.1 µM (inactive); with A549, 57.4 µM (inactive); in the assay on EKVX, 70.8 µM (inactive); in the assay on HCT-116, 44.3 µM (inactive); in the assay on HOP-62, > 100 µM (inactive).

As to `Cc1cccc(N2C(=O)C3c4[nH]c5ccccc5c4C4CCC(C(C)(C)C)CC4C3C2=O)c1C` (centres undefined), the GI50 in the assay with OVCAR-3 is > 100 µM (inactive); in the assay on MDA-MB-435, > 100 µM (inactive); in the assay on TK-10 it was > 100 µM (inactive); with NCI-H226, > 100 µM (inactive); with U-251 it was 28.2 µM (inactive); in the assay on SN12C, 78.7 µM (inactive). For the same molecule, the GI50 with SR, in the assay with MCF7, in the assay on MOLT-4, in the assay with SK-MEL-5, in the assay on ACHN and in the assay with PC-3 was > 100 µM (inactive) each time. Further, the GI50 in the assay with SF-295 is > 100 µM (inactive); in the assay with A549, 47 µM (inactive); with EKVX it was 29.7 µM (inactive); in the assay with HCT-116, 28.7 µM (inactive); in the assay with HOP-62 it was > 100 µM (inactive).

As to `O=S(=O)(c1cc(Cl)ccc1Cl)N1CCN(c2cccc(Cl)c2)CC1`, the GI50 with OVCAR-4, in the assay on OVCAR-3, in the assay with TK-10, in the assay on NCI-H226, with U-251 and with SN12C was > 100 µM (inactive) in each case. Further, the GI50 in the assay on SR is > 100 µM (inactive); in the assay with T47D, > 100 µM (inactive); in the assay with MCF7 it was > 100 µM (inactive); in the assay with MOLT-4, > 100 µM (inactive); in the assay on NCI-H522, > 100 µM (inactive); in the assay on SK-MEL-5, 52.6 µM (inactive). The GI50 with ACHN, in the assay with PC-3, in the assay with SF-295, in the assay on A549, in the assay on EKVX and in the assay with HCT-116 was > 100 µM (inactive) each time. Besides, the GI50 in the assay with HOP-62 is > 100 µM (inactive).
